Reference: patent US8557840B2, “Herbicidal compounds” (Syngenta Limited, priority 2008, dated 2013)

Tests used:
Assay type in all cases: in vivo
Amaranthus retroflexus = assay: Herbicidal action, post-emergence, pots in glasshouse (Example B2); settings: 1000 g/ha, evaluated after 13 days, 10=total damage to plant, 0=no damage to plant
Protocol: (§1) Seeds of a variety of test species were sown in standard soil in pots. After 8 days cultivation (post-emergence) under controlled conditions in a glasshouse (at 24/16° C., day/night; 14 hours light; 65% humidity), the plants were sprayed with an aqueous spray solution derived from the formulation of the technical active ingredient in acetone/water (50:50) solution containing 0.5% Tween 20 (polyoxyethelyene sorbitan monolaurate, CAS RN 9005-64-5). The test plants were then grown in a glasshouse under controlled conditions in a glasshouse (at 24/16° C., day/night; 14 hours light; 65% humidity) and watered twice daily. After 13 days, the test was evaluated (10=total damage to plant; 0=no damage to plant).

Echinochloa crus-galli = assay: as above; settings: 1000 g/ha, evaluated after 13 days, 10=total damage to plant, 0=no damage to plant
Protocol: as §1

Ipomea hederaceae = assay: as above; settings: 1000 g/ha, evaluated after 13 days, 10=total damage to plant, 0=no damage to plant
Protocol: as §1

Setaria faberi = assay: as above; settings: 1000 g/ha, evaluated after 13 days, 10=total damage to plant, 0=no damage to plant
Protocol: as §1

Solanum nigrum = assay: as above; settings: 1000 g/ha, evaluated after 13 days, 10=total damage to plant, 0=no damage to plant
Protocol: as §1

test plants = assay: Herbicidal action, post-emergence (Example B1), all test plants, result in words; settings: same protocol as Example B1, post-emergence
Protocol: Seeds of a variety of test species were sown in sterilised standard soil in seed trays each having 96 cells. […] The plants were grown in the climatic chamber after application at (24/19° C., day/night; 13 hours light; 50-60% humidity) and watered twice daily. After 9 days until the test was evaluated (10=total damage to plant, 0=no damage to plant)

SMILES	AMARE damage to plant (Amaranthus retroflexus)	ECHCG damage to plant (Echinochloa crus-galli)	IPOHE damage to plant (Ipomea hederaceae)	SETFA damage to plant (Setaria faberi)	SOLNI damage to plant (Solanum nigrum)	damage to the test plants (test plants)
Cc1cc(C)c(-c2c(O)c3ncnnc3[nH]c2=O)c(C)c1 [E12]	5	10	3	10	1	–
Cn1c(=O)c(-c2c(F)ccc(F)c2Cl)c(O)c2ccncc21 [C1]	0	0	2	0	0	–
O=c1[nH]c2ncccc2c(O)c1-c1c(F)ccc(F)c1Cl [D4]	–	–	–	–	–	little or no damage
Cn1c(=O)c(-c2c(F)ccc(F)c2Cl)c(O)c2ccc(C(F)(F)F)nc21 [D29]	6	0	7	0	4	–
CCn1c(=O)c(-c2c(F)ccc(Cl)c2Cl)c(O)c2c(OC)ccnc21 [D26]	6	4	6	4	6	–
Cc1cc(Cl)c2c(O)c(-c3c(F)ccc(F)c3Cl)c(=O)n(C)c2n1 [D18]	2	0	0	2	3	–
O=c1[nH]c2ncccc2c(O)c1-c1ccccn1 [D12]	–	–	–	–	–	little or no damage
CCOC(=O)Oc1c(-c2c(C)cc(C)cc2C)c(=O)[nH]c2nncnc12 [E9]	0	10	1	9	0	–
O=c1[nH]c2ncccc2c(O)c1-c1c(F)ccc(Br)c1Cl [D33]	1	0	7	0	3	–
O=c1[nH]c2nncnc2c(O)c1-c1c(F)cc(F)cc1F [E11]	–	–	–	–	–	little or no damage
O=c1[nH]c2ncc(Br)cc2c(O)c1-c1c(F)cccc1F [D27]	–	–	–	–	–	little or no damage
O=c1c(-c2c(F)ccc(Br)c2Cl)c(O)c2cccnc2n1CC(F)F [D32]	4	1	6	1	7	–
CC(C)C(=O)Oc1c(-c2c(F)ccc(F)c2Cl)c(=O)n(C)c2cnccc12 [C2]	3	0	5	0	2	–
O=c1c(-c2c(F)ccc(F)c2Cl)c(O)c2ccc(Cl)nc2n1CC(F)F [D17]	6	0	5	0	6	–
CC(C)(C)C(=O)Oc1c(-c2c(F)ccc(F)c2Cl)c(=O)n(CC(F)F)c2ncccc12 [D10, 2,2-dimethyl-propionic acid 3-(2-chloro-3,6-difluoro-phenyl)-1-(2,2-difluoro-ethyl)-2-oxo-1,2-dihydro-[1,8]naphthyridin-4-yl ester]	7	0	6	0	7	–
O=c1[nH]c2cnncc2c(O)c1-c1c(F)cc(F)cc1F [E13]	–	–	–	–	–	little or no damage
O=c1[nH]c2cccnc2c(O)c1-c1c(F)cc(F)cc1F [A9]	–	–	–	–	–	little or no damage
O=c1[nH]c2ncccc2c(O)c1-c1c(Cl)cccc1Cl [D2]	–	–	–	–	–	little or no damage
O=c1[nH]c2ncccc2c(O)c1-c1ccccc1OC(F)(F)F [D3]	–	–	–	–	–	little or no damage
CCn1c(=O)c(-c2c(F)ccc(F)c2Cl)c(OC(=O)C(C)C)c2cncnc21 [E2]	5	2	2	0	4	–
CC(=O)Oc1c(-c2c(F)ccc(F)c2Cl)c(=O)[nH]c2nncnc12 [E5]	–	–	–	–	–	little or no damage
Cc1cc2c(c(Cl)n1)c(O)c(-c1c(F)ccc(F)c1Cl)c(=O)n2C [B4]	0	0	2	0	2	–
CC(C)(C)C(=O)Oc1c(-c2c(F)ccc(F)c2Cl)c(=O)[nH]c2nc(C(F)(F)F)ccc12 [D31]	0	0	1	0	0	–
